The source made the active and inactive calls.
Experiments:
CAAX prenyl protease 2 = CAAX prenyl protease 2 (Homo sapiens, UniProt Q9Y256); assay: inhibition of Ras-converting CAAX protease Rce1 – biochemical, yeast membranes, quenched-peptide fluorescence, cherry-pick, dose response (AID 588849)
CAAX prenyl protease 1 = CAAX prenyl protease 1 (Saccharomyces cerevisiae S288c, UniProt P47154); assay: yeast CAAX protease Ste24 inhibition – biochemical, S. cerevisiae, plate reader, cherry-pick, dose response (AID 488815)
CAAX prenyl protease 1, sequence (P47154 whole entry): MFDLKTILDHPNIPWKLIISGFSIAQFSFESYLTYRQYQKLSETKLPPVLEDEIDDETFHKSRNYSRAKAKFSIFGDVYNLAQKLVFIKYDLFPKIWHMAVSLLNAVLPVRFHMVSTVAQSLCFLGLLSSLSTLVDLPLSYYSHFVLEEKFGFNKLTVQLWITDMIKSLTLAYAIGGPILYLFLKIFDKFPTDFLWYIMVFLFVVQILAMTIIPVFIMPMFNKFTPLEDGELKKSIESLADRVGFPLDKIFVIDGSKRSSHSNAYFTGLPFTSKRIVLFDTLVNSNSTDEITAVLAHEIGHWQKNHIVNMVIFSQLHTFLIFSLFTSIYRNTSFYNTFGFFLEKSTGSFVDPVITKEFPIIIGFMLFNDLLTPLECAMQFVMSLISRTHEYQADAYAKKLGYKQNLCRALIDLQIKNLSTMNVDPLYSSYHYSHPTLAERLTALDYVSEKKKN

[1] = molecular target: T1, Apoptotic protease-activating factor 1 (Homo sapiens, UniProt O14727); assay type: functional
T1 sequence (O14727 whole entry): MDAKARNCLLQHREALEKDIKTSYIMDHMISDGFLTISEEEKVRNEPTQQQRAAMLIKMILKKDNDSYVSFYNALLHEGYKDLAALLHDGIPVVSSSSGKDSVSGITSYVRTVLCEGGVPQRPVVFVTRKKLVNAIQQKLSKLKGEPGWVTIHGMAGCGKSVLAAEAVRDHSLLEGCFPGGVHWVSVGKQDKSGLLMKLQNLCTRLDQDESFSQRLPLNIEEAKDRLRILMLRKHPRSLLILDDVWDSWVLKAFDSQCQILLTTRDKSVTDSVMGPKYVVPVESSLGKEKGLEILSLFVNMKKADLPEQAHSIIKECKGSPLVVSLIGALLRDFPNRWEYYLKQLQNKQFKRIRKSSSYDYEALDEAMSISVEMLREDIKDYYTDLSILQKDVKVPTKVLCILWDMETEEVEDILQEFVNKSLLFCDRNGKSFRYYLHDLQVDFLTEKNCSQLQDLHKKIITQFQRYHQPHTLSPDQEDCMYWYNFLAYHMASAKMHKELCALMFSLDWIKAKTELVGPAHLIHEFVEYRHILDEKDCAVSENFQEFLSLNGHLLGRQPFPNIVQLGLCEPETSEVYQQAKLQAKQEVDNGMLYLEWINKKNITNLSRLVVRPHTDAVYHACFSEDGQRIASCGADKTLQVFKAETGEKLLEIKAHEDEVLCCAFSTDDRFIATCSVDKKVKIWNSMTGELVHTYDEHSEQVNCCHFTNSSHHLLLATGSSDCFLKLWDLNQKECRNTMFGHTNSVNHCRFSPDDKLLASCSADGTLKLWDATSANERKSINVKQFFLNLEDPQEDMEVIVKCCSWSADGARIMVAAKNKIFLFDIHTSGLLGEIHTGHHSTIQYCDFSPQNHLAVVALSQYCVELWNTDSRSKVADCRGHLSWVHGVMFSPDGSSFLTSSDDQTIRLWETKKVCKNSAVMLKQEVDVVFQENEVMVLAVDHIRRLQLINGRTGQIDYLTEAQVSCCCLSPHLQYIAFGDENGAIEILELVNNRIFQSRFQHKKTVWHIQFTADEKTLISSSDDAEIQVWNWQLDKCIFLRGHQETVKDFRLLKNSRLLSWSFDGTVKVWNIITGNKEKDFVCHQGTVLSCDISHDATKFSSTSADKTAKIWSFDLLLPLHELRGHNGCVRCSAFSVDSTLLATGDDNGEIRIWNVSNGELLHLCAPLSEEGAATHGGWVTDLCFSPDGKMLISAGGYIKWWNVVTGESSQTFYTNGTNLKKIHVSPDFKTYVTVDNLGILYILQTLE

[2] = molecular target: ATP-dependent molecular chaperone HSP82 (Candida albicans (strain WO-1) (Yeast), UniProt C4YTQ8); assay: steroid-induced GRE reporter decrease in yeast – S. cerevisiae, luminescence, Hsp90 inhibitor project, dose response (AID 2400); assay type: functional, cell-based;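 further: beta-galactosidase luminescence from glucocorticoid response element reporter as proxy for Hsp90 function; inhibitor potency where signal loss means Hsp90 inhibition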
ATP-dependent molecular chaperone HSP82, sequence (C4YTQ8 whole entry): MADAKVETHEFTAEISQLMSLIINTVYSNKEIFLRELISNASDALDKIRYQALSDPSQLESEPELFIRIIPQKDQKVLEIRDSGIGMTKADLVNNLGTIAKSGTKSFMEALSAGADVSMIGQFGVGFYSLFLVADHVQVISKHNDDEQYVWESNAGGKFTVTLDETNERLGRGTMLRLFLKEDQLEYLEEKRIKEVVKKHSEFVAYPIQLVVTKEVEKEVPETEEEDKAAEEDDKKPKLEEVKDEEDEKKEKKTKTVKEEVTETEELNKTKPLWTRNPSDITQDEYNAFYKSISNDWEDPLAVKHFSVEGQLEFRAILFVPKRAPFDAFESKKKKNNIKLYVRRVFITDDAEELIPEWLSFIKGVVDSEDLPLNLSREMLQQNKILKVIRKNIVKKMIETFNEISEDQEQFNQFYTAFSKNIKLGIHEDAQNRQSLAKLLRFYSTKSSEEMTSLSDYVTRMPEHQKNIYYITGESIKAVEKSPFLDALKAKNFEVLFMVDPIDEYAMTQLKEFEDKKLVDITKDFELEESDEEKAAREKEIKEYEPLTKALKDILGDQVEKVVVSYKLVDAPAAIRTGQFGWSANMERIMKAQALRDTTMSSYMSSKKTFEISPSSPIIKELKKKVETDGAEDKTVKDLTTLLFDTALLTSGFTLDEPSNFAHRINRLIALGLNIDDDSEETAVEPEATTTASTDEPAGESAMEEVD

Beta-arrestin-1 = Beta-arrestin-1 (Homo sapiens, UniProt P49407); assay: beta-arrestin/AP2 interaction blockers, potency – biochemical, cherry pick 1, beta2-adaptin appendage, flow cytometry, dose response (AID 588783); assay type: functional
Beta-arrestin-1, sequence (P49407 whole entry): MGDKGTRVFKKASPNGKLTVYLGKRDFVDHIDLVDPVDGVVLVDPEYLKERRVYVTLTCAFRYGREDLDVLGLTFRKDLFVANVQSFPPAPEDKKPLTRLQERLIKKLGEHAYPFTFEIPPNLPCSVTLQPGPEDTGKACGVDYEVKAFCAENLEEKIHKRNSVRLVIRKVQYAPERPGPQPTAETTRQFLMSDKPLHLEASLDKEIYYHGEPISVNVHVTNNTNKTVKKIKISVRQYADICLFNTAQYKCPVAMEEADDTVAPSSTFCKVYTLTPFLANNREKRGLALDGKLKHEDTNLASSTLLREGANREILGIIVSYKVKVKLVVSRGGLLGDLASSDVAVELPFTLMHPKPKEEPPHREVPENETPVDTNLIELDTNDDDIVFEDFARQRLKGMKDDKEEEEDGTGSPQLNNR

Nonstructural protein 1 = Nonstructural protein 1 (Influenza A virus, UniProt Q194T2); assay type: functional, Influenza A virus (A/California/07/2009(H1N1))
Nonstructural protein 1, sequence (Q194T2 whole entry): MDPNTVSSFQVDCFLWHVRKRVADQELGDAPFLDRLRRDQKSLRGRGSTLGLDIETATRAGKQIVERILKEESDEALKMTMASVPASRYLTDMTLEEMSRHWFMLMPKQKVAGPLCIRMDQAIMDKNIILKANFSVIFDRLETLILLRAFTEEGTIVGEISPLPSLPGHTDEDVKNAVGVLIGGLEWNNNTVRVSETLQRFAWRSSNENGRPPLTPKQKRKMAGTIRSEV

[3] = molecular target: G-protein coupled receptor 35 (Homo sapiens, UniProt Q9HC97); assay: inhibition of zaprinast-stimulated GPR35 beta-arrestin translocation – imaging, U2OS, beta-arrestin-GFP, zaprinast agonist, primary screen (AID 2058); assay type: functional;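 further: antagonist potency meaning inhibition of agonist-induced arrestin redistribution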
G-protein coupled receptor 35, sequence (Q9HC97 whole entry): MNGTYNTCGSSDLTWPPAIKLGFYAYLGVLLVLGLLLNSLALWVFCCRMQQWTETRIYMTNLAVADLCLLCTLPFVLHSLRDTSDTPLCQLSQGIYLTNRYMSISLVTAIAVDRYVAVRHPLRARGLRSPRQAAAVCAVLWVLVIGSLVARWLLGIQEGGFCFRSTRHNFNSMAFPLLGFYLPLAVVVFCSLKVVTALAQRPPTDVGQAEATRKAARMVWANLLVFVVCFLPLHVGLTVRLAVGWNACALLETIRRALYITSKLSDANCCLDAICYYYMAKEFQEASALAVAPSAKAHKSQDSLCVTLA

BJ [4] = assay: growth inhibition of engineered Ras-driven BJ cells – cell-based, alamar blue fluorescence, cherrypicked samples, dose response (AID 2631); assay type: functional; conditions: Homo sapiens;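 further: confirmatory dose-response assay in RAS-dependent BJ fibroblasts engineered with TERT, LT and ST, with cytotoxicity read by fluorescence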
Phospholipase A2 = Phospholipase A2 (Homo sapiens, UniProt P04054); assay type: functional;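 further: confirmatory dose-response counterscreen on phospholipase A2, testing hits that came from an ultra-high-throughput screen for ATG4B inhibitors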
Phospholipase A2, sequence (P04054 whole entry): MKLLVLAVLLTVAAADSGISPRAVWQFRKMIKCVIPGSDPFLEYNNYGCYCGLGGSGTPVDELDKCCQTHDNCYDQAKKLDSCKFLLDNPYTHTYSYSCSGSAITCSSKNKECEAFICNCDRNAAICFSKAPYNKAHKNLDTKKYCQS

[5] = HEK-293T viability loss after treatment – luminescence, T-cell screen hits, cytotoxicity control for TCR NF-kB inhibitor project, dose response (AID 489026); assay type: functional, cell-based;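 further: cells exposed to compound about 14 hours before the viability readout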
BJ [6] = assay: BJ-TERT-LT-ST fibroblast viability loss – cell-based, RAS-independent, luminescence, dose response (AID 1935); assay type: functional; conditions: Homo sapiens;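 further: BJ fibroblasts immortalized with TERT plus LT and ST oncogenes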
Cysteine protease ATG4B = molecular target: T2, Cysteine protease ATG4B (Homo sapiens, UniProt Q9Y4P1); assay type: functional;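 further: Fluorescence-based dose-response confirmation assay measuring inhibition of ATG4B activity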
T2 sequence (Q9Y4P1 whole entry): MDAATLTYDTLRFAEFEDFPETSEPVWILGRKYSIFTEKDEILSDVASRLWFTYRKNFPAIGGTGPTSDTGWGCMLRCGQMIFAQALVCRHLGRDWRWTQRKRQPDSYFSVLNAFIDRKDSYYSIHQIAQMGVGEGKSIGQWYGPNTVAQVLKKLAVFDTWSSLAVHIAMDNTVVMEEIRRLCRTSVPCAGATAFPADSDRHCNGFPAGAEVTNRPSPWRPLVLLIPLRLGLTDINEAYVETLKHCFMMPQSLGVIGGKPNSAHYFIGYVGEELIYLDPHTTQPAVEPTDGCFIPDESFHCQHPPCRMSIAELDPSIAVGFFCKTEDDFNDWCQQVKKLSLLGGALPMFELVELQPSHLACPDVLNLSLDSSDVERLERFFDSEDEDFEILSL

[7] = fluconazole-exposed Candida albicans growth modulators – fluorescence, retest, confirmation (AID 2467); assay type: functional, cell-based
[8] = NIH-3T3 fibroblast cytotoxicity, dose response, cytotoxicity control, cell-based, fluorescence, Alamar Blue, secondary assay (AID 2327); assay type: functional;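 further: NIH-3T3 mouse fibroblasts cultured with fluconazole at 8 µg/mL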
[9] = test system: Streptococcus sp. 'group A'; assay: Streptococcus pyogenes SK(-)GAS viability under kanamycin – luminescence, BacTiterGlo, confirmation, counter-screen for streptokinase expression inhibitor project, dose response (AID 1900); assay type: functional, organism-based
[10] = DRD fibroblast viability loss – cell-based, non-viral oncogenic, luminescence, dose response (AID 1934); assay type: functional; conditions: Homo sapiens
[11] = Luminescence Cell-Based Dose Response HTS to Identify Inhibitors of 5'UTR Stem-Loop Driven Prion Protein mRNA Translation in H4 Neuroglioblastoma Cells. [Related pubchem assays: 1827 (Project Summary), 1813 (Primary HTS)]; assay type: functional
[12] = luciferase reporter signal suppression in cells – H4 neuroglioma cells, luminescence, dose response (AID 1990); assay type: functional, cell-based
Streptococcus = assay: GAS UMAA2166 growth inhibition – luminescence, BacTiterGlo, counter-screen for streptokinase expression inhibitor project, dose response (AID 1915); assay type: functional, organism-based;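 further: potency for reduction of bacterial viability or growth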
BJ [13] = assay: cells; assay type: functional, cell-based; conditions: Homo sapiens
BJ [14] = assay: BJ-TERT fibroblast viability loss – cell-based, RAS-independent, luminescence, dose response (AID 1933); assay type: functional; conditions: Homo sapiens
[15] = molecular target: T3, Serine/threonine-protein phosphatase (Candida dubliniensis (strain CD36 / CBS 7987 / NCPF 3949 / NRRLY-17841) (Yeast), UniProt B9W6M3); assay: blockers of CaCl2-induced CDRE-lacZ signaling – S. cerevisiae, luminescence, secondary, dose response (AID 2388); assay type: functional, cell-based;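 further: yeast reporter cells carrying a calcineurin-responsive lacZ construct stimulated with calcium chloride; luminescent beta-galactosidase reporter signal in whole cells rather than isolated phosphatase activity; potency for inhibition where a drop in reporter signal means calcineurin blockade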
T3 sequence (B9W6M3 whole entry): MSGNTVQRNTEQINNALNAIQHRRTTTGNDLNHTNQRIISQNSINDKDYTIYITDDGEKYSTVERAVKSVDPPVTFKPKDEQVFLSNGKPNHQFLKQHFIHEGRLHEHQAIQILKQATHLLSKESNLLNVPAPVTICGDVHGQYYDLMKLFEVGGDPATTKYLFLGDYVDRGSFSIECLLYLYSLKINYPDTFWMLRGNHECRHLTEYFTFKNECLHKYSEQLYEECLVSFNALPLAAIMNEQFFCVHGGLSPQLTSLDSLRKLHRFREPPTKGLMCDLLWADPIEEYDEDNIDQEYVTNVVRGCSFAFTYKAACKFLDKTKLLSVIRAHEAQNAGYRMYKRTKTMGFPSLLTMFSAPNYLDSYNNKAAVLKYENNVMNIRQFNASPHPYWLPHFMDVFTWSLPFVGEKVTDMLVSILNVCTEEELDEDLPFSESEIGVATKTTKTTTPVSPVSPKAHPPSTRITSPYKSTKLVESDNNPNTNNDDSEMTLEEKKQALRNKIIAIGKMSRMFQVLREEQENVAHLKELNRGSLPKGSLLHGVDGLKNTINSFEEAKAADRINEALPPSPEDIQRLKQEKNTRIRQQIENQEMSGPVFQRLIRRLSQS

[16] = molecular target: Cyclin-dependent kinase 5/CDK5 activator 1 (Homo sapiens, UniProt Q00535); assay: blockade of human CDK5 activity – biochemical, cherry-picked samples, set 2, dose response (AID 504545)
Cyclin-dependent kinase 5/CDK5 activator 1, sequence (Q00535 whole entry): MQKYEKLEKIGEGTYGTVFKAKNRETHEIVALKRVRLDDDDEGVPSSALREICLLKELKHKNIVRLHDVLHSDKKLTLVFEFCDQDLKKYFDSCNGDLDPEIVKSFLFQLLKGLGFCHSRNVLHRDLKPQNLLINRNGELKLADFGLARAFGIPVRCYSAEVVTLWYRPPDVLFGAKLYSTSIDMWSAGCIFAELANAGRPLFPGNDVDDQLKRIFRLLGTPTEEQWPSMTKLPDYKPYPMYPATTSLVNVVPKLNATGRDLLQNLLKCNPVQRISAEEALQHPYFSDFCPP
Cyclin-dependent kinase 5/CDK5 activator 1, sequence (Q15078 whole entry, further chain): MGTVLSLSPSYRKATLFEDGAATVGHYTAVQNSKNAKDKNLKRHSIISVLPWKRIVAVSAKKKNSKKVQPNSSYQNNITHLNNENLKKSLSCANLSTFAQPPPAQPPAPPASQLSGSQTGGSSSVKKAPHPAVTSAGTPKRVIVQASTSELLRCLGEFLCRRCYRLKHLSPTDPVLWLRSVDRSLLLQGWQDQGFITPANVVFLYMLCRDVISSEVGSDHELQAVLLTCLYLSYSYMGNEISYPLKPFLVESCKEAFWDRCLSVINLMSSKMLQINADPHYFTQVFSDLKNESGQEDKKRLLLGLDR

[17] = molecular target: 5-hydroxytryptamine receptor 5A (Homo sapiens, UniProt P47898); assay: Counterscreen for agonists of OPRM1-OPRD1 heterodimerization: luminescence-based cell-based high throughput dose response assay to identify agonists of 5-hydroxytryptamine (serotonin) 5A receptor (HTR5A). [Related pubchem assays (depositor defined):AID504326, AID504355, AID504692, AID504904, AID504905]; assay type: functional
5-hydroxytryptamine receptor 5A, sequence (P47898 whole entry): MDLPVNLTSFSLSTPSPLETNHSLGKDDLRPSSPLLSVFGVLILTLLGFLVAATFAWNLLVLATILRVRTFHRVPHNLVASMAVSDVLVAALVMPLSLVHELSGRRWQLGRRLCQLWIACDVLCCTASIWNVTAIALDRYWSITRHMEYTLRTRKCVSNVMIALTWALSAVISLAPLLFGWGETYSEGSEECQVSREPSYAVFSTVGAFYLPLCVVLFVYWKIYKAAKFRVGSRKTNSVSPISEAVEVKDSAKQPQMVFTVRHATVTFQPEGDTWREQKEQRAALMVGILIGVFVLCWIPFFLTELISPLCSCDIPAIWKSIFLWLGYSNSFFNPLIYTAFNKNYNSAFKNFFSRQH

[18] = molecular target: Delta-type opioid receptor (Homo sapiens, UniProt P41143); assay: Counterscreen for agonists of heterodimerization of the mu 1 (OPRM1) and delta 1 (OPRD1) opioid receptors: Luminescence-based cell-based high throughput dose response assay to identify agonists of OPRD1 homodimerization. [Related pubchem assays (depositor defined):AID504326, AID504355, AID504692, AID504904, AID504905]; assay type: functional
Delta-type opioid receptor, sequence (P41143 whole entry): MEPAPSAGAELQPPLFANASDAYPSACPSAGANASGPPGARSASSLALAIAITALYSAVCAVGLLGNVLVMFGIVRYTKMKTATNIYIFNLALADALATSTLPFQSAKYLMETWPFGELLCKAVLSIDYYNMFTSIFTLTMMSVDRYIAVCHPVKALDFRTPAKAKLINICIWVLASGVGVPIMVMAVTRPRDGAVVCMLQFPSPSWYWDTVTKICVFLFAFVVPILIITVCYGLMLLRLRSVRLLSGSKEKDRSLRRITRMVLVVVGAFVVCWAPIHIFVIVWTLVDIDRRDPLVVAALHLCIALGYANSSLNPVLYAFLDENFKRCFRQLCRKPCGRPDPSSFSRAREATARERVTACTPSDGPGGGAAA

[19] = molecular target: T4, Short transient receptor potential channel 4 (Mus musculus, UniProt Q9QUQ5); assay: calcium entry via TRPC4 opening agents – cell-based, HEK293 TRPC4/mu-opioid, Fluo-4 calcium, dose response (AID 434937); assay type: functional
T4 sequence (Q9QUQ5 whole entry): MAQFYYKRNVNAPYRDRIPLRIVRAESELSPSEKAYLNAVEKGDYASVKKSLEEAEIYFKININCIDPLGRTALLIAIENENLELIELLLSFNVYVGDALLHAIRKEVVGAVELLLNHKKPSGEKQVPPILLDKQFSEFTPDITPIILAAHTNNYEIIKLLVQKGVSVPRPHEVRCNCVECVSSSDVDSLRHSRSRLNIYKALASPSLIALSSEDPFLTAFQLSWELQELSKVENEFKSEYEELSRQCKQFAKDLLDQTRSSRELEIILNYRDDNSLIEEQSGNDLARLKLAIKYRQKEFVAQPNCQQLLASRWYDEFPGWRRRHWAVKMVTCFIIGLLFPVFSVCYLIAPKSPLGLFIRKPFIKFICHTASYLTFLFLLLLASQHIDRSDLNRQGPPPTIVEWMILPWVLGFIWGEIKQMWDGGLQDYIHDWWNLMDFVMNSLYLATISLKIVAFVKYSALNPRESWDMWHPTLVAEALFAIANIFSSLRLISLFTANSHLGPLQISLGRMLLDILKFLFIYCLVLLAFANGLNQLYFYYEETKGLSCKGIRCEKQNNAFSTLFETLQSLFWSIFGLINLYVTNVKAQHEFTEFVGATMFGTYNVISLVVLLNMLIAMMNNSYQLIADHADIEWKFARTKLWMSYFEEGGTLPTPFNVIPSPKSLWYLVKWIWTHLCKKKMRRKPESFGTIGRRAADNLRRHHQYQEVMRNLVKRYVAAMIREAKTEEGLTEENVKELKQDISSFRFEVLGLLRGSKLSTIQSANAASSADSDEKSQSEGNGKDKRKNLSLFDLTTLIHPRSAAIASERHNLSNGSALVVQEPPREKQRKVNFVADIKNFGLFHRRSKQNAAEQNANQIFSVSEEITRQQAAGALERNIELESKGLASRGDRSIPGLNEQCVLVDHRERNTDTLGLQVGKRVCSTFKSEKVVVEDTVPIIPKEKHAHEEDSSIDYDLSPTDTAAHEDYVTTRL

Mu-type opioid receptor = Mu-type opioid receptor (Homo sapiens, UniProt P35372); assay: Counterscreen for agonists of heterodimerization of the mu 1 (OPRM1) and delta 1 (OPRD1) opioid receptors: Luminescence-based cell-based high throughput dose response assay to identify agonists of OPRM1 homodimerization.; assay type: functional;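 further: U2OS cells expressing OPRM1 and beta-arrestin as split beta-galactosidase partners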
Mu-type opioid receptor, sequence (P35372 whole entry): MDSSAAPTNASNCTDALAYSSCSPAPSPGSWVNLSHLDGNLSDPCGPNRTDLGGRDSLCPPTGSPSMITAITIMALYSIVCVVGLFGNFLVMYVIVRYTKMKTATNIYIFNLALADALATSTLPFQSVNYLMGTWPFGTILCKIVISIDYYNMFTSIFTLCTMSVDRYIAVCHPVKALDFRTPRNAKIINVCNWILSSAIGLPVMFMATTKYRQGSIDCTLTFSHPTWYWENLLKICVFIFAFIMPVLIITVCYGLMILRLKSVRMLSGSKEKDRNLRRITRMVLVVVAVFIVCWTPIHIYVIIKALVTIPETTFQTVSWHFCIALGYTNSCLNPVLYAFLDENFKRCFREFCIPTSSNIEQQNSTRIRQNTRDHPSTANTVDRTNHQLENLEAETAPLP

CAAX prenyl protease 2, sequence (Q9Y256 whole entry): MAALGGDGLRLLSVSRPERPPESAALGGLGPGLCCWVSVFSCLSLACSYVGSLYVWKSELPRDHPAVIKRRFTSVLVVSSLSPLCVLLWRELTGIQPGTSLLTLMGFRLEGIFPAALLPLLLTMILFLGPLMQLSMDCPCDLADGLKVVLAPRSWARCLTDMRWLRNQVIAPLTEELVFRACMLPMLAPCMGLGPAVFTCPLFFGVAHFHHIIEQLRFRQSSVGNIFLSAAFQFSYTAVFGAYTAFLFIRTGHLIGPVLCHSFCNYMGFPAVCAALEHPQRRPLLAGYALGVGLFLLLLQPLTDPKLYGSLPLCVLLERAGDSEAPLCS

CC1CCCC(/C=N/c2ccccc2C(=O)O)=C1O (configuration not stated)
AC50 (CAAX prenyl protease 2): 11.6 µM (active)
AC50 (CAAX prenyl protease 1): 4.3 µM (active)

CCN1/C(=C/C(C)=C/c2sc3ccccc3[n+]2CC)Sc2ccccc21
IC50 [1]: 19.4 µM (active)
EC50 [2]: 18.3 µM (active)
IC50 (Beta-arrestin-1): 2.2 µM (active)
IC50 (Nonstructural protein 1): 5.7 µM (active)
IC50 [3]: 1.01 µM (active)
EC50 (BJ [4]): 1.74 µM (active)
IC50 (Phospholipase A2): 7.86 µM (active)
IC50 [5]: 64.4 µM (inactive)
EC50 (BJ [6]): 5.48 µM (inconclusive)
IC50 (Cysteine protease ATG4B): 8.62 µM (active)
EC50 [7]: 0.051 µM (active)
EC50 [8]: 77.7 µM (active)
EC50 [9]: 2.15 µM (active)
EC50 [10]: 6.17 µM (active)
EC50 [11]: 1.68 µM (active)
EC50 [12]: < 0.1 µM (active)
EC50 (Streptococcus): 2.74 µM (active)
EC50 (BJ [13]): 6.01 µM (active)
EC50 (BJ [14]): 4.56 µM (active)
EC50 [15]: > 180 µM (inactive)
AC50 [16]: 41.1 µM (active)

Cc1ccccc1N(CC(=O)N/N=C/c1ccc(F)cc1)C(=O)c1ccccc1
EC50 [17]: > 92.5 µM (inactive)
EC50 [18]: > 92.5 µM (inactive)
EC50 [19]: 2.11 µM (active)
EC50 (Mu-type opioid receptor): > 92.5 µM (inactive)

Source: ChEMBL document CHEMBL1201862, “PubChem BioAssay data set” (2004)
